The source of these data is US20220380370A1 (Goldfinch Bio, Inc., priority 2019, published 2022).

The target of this experiment is T1, CB1 receptor (Homo sapiens, UniProt P21554).
T1 construct: Perkin Elmer (CB1-CHO cells); host or cells: Flp-In CHO cells or CB1-CHO cells, stably expressing
The experiment can be described thus: CB1 cAMP antagonist assay (LANCE Ultra cAMP kit). The experiment is classed as cell-based. The following applies: CHO cells stably expressing the CB1 receptor; forskolin and agonist CP55940 at EC90. The source says: LANCE Ultra cAMP kit (Perkin Elmer) was used to quantitate the amount of 3′,5′-cyclic adenosine monophosphate (cAMP) produced in Flp-In CHO cells (Invitrogen) stably expressing the CB1 receptor, CB1-CHO cells (Perkin Elmer) stably expressing the CB1 receptor, or CB2-CHO cells (Perkin Elmer) stably expressing the CB2 receptor.
Forskolin was initially titrated to determine the response of the cells. The EC90 of forskolin was used for compound testing. CP55940 was titrated and used with EC90 of forskolin to determine the level of agonist stimulation. EC90 of the agonist was used for subsequent compound testing. For the CB1 assay, Forskolin (Sigma), CP55940 (Cayman Chemicals), and AM251 (MCE) were diluted in 100% DMSO, starting at 100 mM, 1 mM, and 1 mM respectively, in 3-fold serial dilutions. For the CB2 assay, Forskolin (Sigma), CP55940 (Cayman Chemicals), and AM630 (MCE) were diluted in 100% DMSO, starting at 100 mM, 1 mM, and 30 mM respectively, in 3-fold serial dilutions. Test compounds were diluted in 100% DMSO starting from 10 mM, 3-fold dilutions. The cAMP assay buffer contains 1× Hank's Buffered Saline Solution with Ca^2+ and Mg^2+ (Invitrogen), 5.3 mM HEPES (Invitrogen), 0.05% BSA, 0.5 mM IBMX (Sigma). For all assays, cells were harvested, counted, and diluted in cAMP assay buffer to 1×10^5 cells/mL. Only cells with viability >85% were used for the assay. Cells were seeded at 1000 cells/well in 384-well plates and 10 nL/well AM251 (for CB1), AM630 (for CB2) or test compound was added and incubated at 37° C. for 10 min. Then forskolin and agonist were added to reach their EC90 and incubated at 25° C. for 30 min. To detect the amount of cAMP produced, 5 μL of a 100× diluted stock of Eu-cAMP tracer and 5 μL of 200× diluted stock of Ulight-anti-cAMP were added to each well, and the plate incubated at 25° C. for 15 min. The FRET signal was read using an EnVision microplate reader (λex=320 nm, λem=615 nm and 665 nm). The results are expressed as % Inhibition, where % inhibition=100−100×(U−C2)/(C1−C2), where U is the FRET ratio (λem (665 nm)/λem (615 nm)) of sample, C1 is the average of the high controls (signal with no antagonist added), and C2 is the average of low controls (signal with the highest concentration of AM251 or AM630 antagonist). The IC50 is determined by fitting the percentage of inhibition as a function of compound concentrations with the Hill equation, using a 4-parameter fit in either XLfit or GraphPad Prism.
On the technique in general: TR-FRET usually uses a lanthanide donor and a delayed reading to cut background.

Structures are written as SMILES. Where only a bound is given, the exact number is not on record here.

T1 sequence (P21554 whole entry): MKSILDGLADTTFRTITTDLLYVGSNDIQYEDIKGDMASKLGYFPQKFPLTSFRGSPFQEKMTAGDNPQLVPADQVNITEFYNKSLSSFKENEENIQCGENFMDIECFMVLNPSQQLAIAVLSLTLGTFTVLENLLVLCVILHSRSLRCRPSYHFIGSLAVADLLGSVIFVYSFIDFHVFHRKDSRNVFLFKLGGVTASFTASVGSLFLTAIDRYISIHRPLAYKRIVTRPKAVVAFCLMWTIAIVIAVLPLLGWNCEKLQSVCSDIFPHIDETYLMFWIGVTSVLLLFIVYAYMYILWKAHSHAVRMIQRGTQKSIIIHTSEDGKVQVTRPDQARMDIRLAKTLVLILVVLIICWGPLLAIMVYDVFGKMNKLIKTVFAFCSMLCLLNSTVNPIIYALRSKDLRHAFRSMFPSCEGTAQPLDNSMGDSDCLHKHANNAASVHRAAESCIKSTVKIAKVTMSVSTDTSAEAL

Regarding `Cn1c(=O)c2c(nc(-c3cccnc3Cl)n2-c2ccc(Cl)cc2)n(C2CCCCC2)c1=O` [Compound 152, 7-(4-chlorophenyl)-8-(2-chloropyridin-3-yl)-3-cyclohexyl-1-methylpurine-2,6-dione], the IC50 (usually the concentration at which inhibition is half-maximal) is below 100 nM.

Turning to `NS(=O)(=O)Cn1c(=O)c2c(nc(-c3ccccc3Cl)n2-c2ccc(Cl)cc2)n(Cc2ccc(Cl)cn2)c1=O` [Compound 169, [8-(2-chlorophenyl)-7-(4-chlorophenyl)-3-[(5-chloropyridin-2-yl)methyl]-2,6-dioxopurin-1-yl]methanesulfonamide], the IC50 was below 100 nM. Turning to `C[C@H](CO)NC(=O)c1ccc(Cn2c(=O)n(C)c(=O)c3c2nc(-c2ccccc2Cl)n3-c2ccc(Cl)cc2)nc1` [Compound 161], the IC50 was below 100 nM. With `NC(=O)Cn1c(=O)c2c(nc(-c3ccccc3Cl)n2-c2ccc(Cl)cc2)n(Cc2ccc(CC(O)CO)cc2)c1=O` (stereo in doubt) [Compound 148, 2-[8-(2-chlorophenyl)-7-(4-chlorophenyl)-3-([4-[(2R)-2,3-dihydroxypropyl]phenyl]methyl)-2,6-dioxopurin-1-yl]acetamide], the IC50 fell in the range of 100 to 1000 nM.

`C[C@@H](Cn1c(=O)c2c(nc(-c3ccccc3Cl)n2-c2ccc(Cl)cc2)n(CC2CCS(=O)(=O)CC2)c1=O)C(N)=O` [Compound 174, (2S)-3-[8-(2-chlorophenyl)-7-(4-chlorophenyl)-3-[(1,1-dioxo-1λ^6-thian-4-yl)methyl]-2,6-dioxopurin-1-yl]-2-methylpropanamide] yielded a concentration for half-maximal inhibition (IC50) below 100 nM. For `C[C@@H](C(N)=O)n1c(=O)c2c(nc(-c3ccccc3Cl)n2-c2ccc(Cl)cc2)n(CC2CCOCC2)c1=O` [Compound 139] the value was below 100 nM; for `COC(=O)c1ccc(Cn2c(=O)n(C)c(=O)c3c2nc(-c2ccccc2Cl)n3-c2ccc(Cl)cc2)cc1` [Compound 108], below 100 nM. `Cn1nccc1-c1nc2c(c(=O)n(C)c(=O)n2Cc2ccc(S(N)(=O)=O)cc2)n1-c1ccc(Cl)cc1` [Compound 181] yielded a half-inhibitory concentration (IC50) below 100 nM. For `CN1CCN(Cc2ccc(Cn3c(=O)n(CC(N)=O)c(=O)c4c3nc(-c3ccccc3Cl)n4-c3ccc(Cl)cc3)cc2)CC1` [Compound 118], the IC50 lay in the range of 1000 to 5000 nM. For `CC(C(N)=O)n1c(=O)c2c(nc(-c3ccccc3Cl)n2-c2ccc(Cl)cc2)n(CC2CCS(=O)(=O)CC2)c1=O` (stereo in doubt) [Compound 144, (2R)-2-[8-(2-chlorophenyl)-7-(4-chlorophenyl)-3-[(1,1-dioxo-1 lambda6-thian-4-yl)methyl]-2,6-dioxopurin-1-yl]propanamide] the value was below 100 nM; for `C[C@H](c1ccc(S(N)(=O)=O)cn1)n1c(=O)n(C)c(=O)c2c1nc(-c1ccccc1Cl)n2-c1ccc(Cl)cc1` [Compound 180, 6-[(1R)-1-[8-(2-chlorophenyl)-7-(4-chlorophenyl)-1-methyl-2,6-dioxopurin-3-yl]ethyl]pyridine-3-sulfonamide], below 100 nM.

For `NC(=O)Cn1c(=O)c2c(nc(-c3ccccc3Cl)n2-c2ccc(Cl)cc2)n(CC2(O)CCOCC2)c1=O` [Compound 168, 2-[8-(2-chlorophenyl)-7-(4-chlorophenyl)-3-[(4-hydroxyoxan-4-yl)methyl]-2,6-dioxopurin-1-yl]acetamide], the 50% inhibitory concentration (IC50) is below 100 nM. For `CC(C(N)=O)n1c(=O)c2c(nc(-c3ccccc3Cl)n2-c2ccc(Cl)cc2)n(C2CCOCC2)c1=O` (stereo in doubt) [Compound 138, (2R)-2-[8-(2-chlorophenyl)-7-(4-chlorophenyl)-3-(oxan-4-yl)-2,6-dioxopurin-1-yl]propanamide] the value was 100 to 1000 nM; for `C[C@@H](c1ccc(S(N)(=O)=O)cn1)n1c(=O)n(C)c(=O)c2c1nc(-c1ccccc1Cl)n2-c1ccc(Cl)cc1` [Compound 179, 6-[(1S)-1-[8-(2-chlorophenyl)-7-(4-chlorophenyl)-1-methyl-2,6-dioxopurin-3-yl]ethyl]pyridine-3-sulfonamide], below 100 nM. The same measure for `NC(=O)Cn1c(=O)c2c(nc(-c3ccccc3Cl)n2-c2ccc(Cl)cc2)n(Cc2ccc([C@H]3COCCO3)cc2)c1=O` [Compound 141, 2-[8-(2-chlorophenyl)-7-(4-chlorophenyl)-3-([4-[(2S)-1,4-dioxan-2-yl]phenyl]methyl)-2,6-dioxopurin-1-yl]acetamide]: below 100 nM; for `Cn1c(=O)c2c(nc(-c3ccccc3Cl)n2-c2ccc(Cl)cc2)n(CC2CCN(C[C@H](O)CO)CC2)c1=O` [Compound 113, 8-(2-chlorophenyl)-7-(4-chlorophenyl)-3-([1-[(2S)-2,3-dihydroxypropyl]piperidin-4-yl]methyl)-1-methyl-2,3,6,7-tetrahydro-1H-purine-2,6-dione]: at least 5000 nM; for `CS(=O)(=O)c1ccc(Cn2c(=O)n(CC(N)=O)c(=O)c3c2nc(-c2ccccc2Cl)n3-c2ccc(Cl)cc2)nc1` [Compound 154]: below 100 nM. For `C[C@@H](c1ccc(C(N)=O)cc1)n1c(=O)n(C[C@@H](O)CO)c(=O)c2c1nc(-c1ccccc1Cl)n2-c1ccc(Cl)cc1` [Compound 151] the value was 100 to 1000 nM; for `Cn1c(=O)c2c(nc(-c3ccccc3Cl)n2-c2ccc(Cl)nc2)n(C2CCCCC2)c1=O` [Compound 149, 8-(2-chlorophenyl)-7-(6-chloropyridin-3-yl)-3-cyclohexyl-1-methylpurine-2,6-dione], below 100 nM; for `CN(CCO)C(=O)c1ccc(Cn2c(=O)n(C)c(=O)c3c2nc(-c2ccccc2Cl)n3-c2ccc(Cl)cc2)cc1` [Compound 126], 100 to 1000 nM. In the case of `O=c1[nH]c(=O)n(Cc2ccc(Cl)cc2)c2nc(-c3ccccc3Cl)n(-c3ccc(Cl)cc3)c12` [Compound 119, 8-(2-chlorophenyl)-7-(4-chlorophenyl)-3-[(4-chlorophenyl)methyl]-2,3,6,7-tetrahydro-1H-purine-2,6-dione], the half-inhibitory concentration (IC50) was below 100 nM. For `CC(C(N)=O)n1c(=O)c2c(nc(-c3ccccc3Cl)n2-c2ccc(Cl)cc2)n(CC2CCS(=O)(=O)CC2)c1=O` (stereo in doubt) [Compound 142, (2S)-2-[8-(2-chlorophenyl)-7-(4-chlorophenyl)-3-[(1,1-dioxo-1 lambda6-thian-4-yl)methyl]-2,6-dioxopurin-1-yl]propanamide] the value was below 100 nM; for `NC(=O)Cn1c(=O)c2c(nc(-c3ncccc3Cl)n2-c2ccc(Cl)cc2)n(CC2CCS(=O)(=O)CC2)c1=O` [Compound 163, 2-[7-(4-chlorophenyl)-8-(3-chloropyridin-2-yl)-3-[(1,1-dioxo-1λ^6-thian-4-yl)methyl]-2,6-dioxopurin-1-yl]acetamide], 1000 to 5000 nM; for `Cn1c(=O)c2c(nc(-c3ccccc3Cl)n2-c2ccc(Cl)cc2)n(CC2CCCCC2)c1=O` [Compound 110, 8-(2-chlorophenyl)-7-(4-chlorophenyl)-3-(cyclohexylmethyl)-1-methyl-2,3,6,7-tetrahydro-1H-purine-2,6-dione], below 100 nM. The same measure for `Cn1c(=O)[nH]c2nc(-c3ccccc3Cl)n(-c3ccc(Cl)cc3)c2c1=O` [Compound 147, 8-(2-chlorophenyl)-7-(4-chlorophenyl)-1-methyl-3H-purine-2,6-dione]: 1000 to 5000 nM; for `NC(=O)Cn1c(=O)c2c(nc(-c3ccccc3Cl)n2-c2ccc(Cl)cc2)n(Cc2ccc([C@@H]3COCCO3)cc2)c1=O` [Compound 145, 2-[8-(2-chlorophenyl)-7-(4-chlorophenyl)-3-([4-[(2R)-1,4-dioxan-2-yl]phenyl]methyl)-2,6-dioxopurin-1-yl]acetamide]: below 100 nM; for `NC(=O)Cn1c(=O)c2c(nc(-c3ccccc3Cl)n2-c2ccc(Cl)cc2)n(C2CCOCC2)c1=O` [Compound 133]: below 100 nM.

Take `NC(=O)Cn1c(=O)c2c(nc(-c3ccccc3Cl)n2-c2ccc(Cl)cc2)n(CC2COCCO2)c1=O` (racemic) [Compound 124, 2-[8-(2-chlorophenyl)-7-(4-chlorophenyl)-3-(1,4-dioxan-2-ylmethyl)-2,6-dioxopurin-1-yl]acetamide]: the concentration for half-maximal inhibition (IC50) was below 100 nM.

`NC(=O)Cn1c(=O)c2c(nc(-c3ccccc3Cl)n2-c2ccc(Cl)cc2)n(Cc2ccc(CN3CCOCC3)cc2)c1=O` [Compound 121, 2-[8-(2-chlorophenyl)-7-(4-chlorophenyl)-3-([4-[(morpholin-4-yl)methyl]phenyl]methyl)-2,6-dioxo-2,3,6,7-tetrahydro-1H-purin-1-yl]acetamide] gave an IC50 below 100 nM.
